Data taken from patent publication US8586579B2, “Anellated pyridine compounds” (Hoffmann-La Roche Inc., priority 2010, dated 2013).
Read-outs that look alike come from different tables or passages of the source.

Experiments:
human 5-HT2A receptor = human 5-HT2A receptor (Homo sapiens (Human), UniProt P28223); experiment: Radioligand binding assay, [3H]-ketanserin, human 5-HT2A receptor
Summary of the method: (§1)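 Incubation was 1 h at RT, using 1.1 nM [3H]-ketanserin at 5-HT2A or 0.5 nM [3H]-spiperone at D3, on membranes of transiently transfected HEK293 EBNA cells. Nonspecific binding was set with 10 μM unlabelled spiperone.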

human D2 receptor = human D2 receptor (Homo sapiens (Human), UniProt P14416); experiment: Radioligand binding assay, [3H]-spiperone, human D2 receptor; details: membranes of HEK293 EBNA cells expressing human D2; 0.7 nM [3H]-spiperone
human D2 receptor, sequence (P14416 whole entry): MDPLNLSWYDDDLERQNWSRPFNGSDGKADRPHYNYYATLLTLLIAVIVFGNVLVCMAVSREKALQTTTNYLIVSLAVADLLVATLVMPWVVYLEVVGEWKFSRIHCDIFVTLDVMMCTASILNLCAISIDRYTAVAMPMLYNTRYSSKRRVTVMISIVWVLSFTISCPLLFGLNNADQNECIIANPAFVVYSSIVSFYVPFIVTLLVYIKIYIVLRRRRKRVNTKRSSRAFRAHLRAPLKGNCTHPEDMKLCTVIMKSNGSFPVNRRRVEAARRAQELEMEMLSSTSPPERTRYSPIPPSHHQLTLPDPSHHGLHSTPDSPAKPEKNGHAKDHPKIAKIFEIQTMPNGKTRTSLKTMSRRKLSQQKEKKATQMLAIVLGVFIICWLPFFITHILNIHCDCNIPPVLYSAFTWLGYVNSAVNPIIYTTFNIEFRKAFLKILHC
Summary of the method: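 Competition binding used ~0.7 nM [3H]-spiperone, 1 h at room temperature, pH 7.4 Tris/salt buffer, on transiently transfected HEK293 EBNA membranes bearing human D2.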

human D3 receptor = human D3 receptor (Homo sapiens (Human), UniProt P35462); experiment: Radioligand binding assay, [3H]-spiperone, human D3 receptor; details: membranes of HEK293 EBNA cells expressing human D3; 0.5 nM [3H]-spiperone
human D3 receptor, sequence (P35462 whole entry): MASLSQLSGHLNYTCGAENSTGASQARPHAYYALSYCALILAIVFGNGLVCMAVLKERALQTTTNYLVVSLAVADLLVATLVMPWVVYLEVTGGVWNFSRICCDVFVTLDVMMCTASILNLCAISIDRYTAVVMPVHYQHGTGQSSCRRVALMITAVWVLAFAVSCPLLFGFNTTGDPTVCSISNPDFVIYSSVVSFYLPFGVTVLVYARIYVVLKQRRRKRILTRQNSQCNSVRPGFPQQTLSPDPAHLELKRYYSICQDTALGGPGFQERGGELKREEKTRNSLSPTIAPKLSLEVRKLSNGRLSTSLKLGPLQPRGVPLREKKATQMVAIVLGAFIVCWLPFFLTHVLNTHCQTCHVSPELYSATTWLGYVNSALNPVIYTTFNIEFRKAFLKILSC
Summary of the method: as §1

[1] = membranes of HEK293 EBNA cells expressing human 5-HT2A, 1.1 nM [3H]-ketanserin

human 5-HT2A receptor, sequence (P28223 whole entry): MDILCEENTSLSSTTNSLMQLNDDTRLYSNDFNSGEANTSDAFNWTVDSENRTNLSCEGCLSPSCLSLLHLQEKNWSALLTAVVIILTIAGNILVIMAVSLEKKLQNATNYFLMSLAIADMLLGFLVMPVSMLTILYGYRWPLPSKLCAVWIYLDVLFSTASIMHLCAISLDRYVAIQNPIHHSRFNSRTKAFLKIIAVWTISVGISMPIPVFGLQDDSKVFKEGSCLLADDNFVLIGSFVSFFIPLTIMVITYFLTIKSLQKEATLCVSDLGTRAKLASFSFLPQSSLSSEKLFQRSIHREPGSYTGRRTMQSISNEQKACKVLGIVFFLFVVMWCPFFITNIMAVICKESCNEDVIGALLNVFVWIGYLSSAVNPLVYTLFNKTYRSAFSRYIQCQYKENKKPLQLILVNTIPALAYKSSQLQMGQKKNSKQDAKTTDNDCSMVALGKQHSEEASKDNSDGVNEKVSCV

| Compound | Ki (human 5-HT2A receptor; [1]) | Ki (human D2 receptor) | Ki (human D3 receptor) | melting point | Ki (human 5-HT2A receptor) |
| --- | --- | --- | --- | --- | --- |
| O=C(N[C@H]1CC[C@H](CCN2CCN(c3nccc4c3CCO4)CC2)CC1)c1ccc(-n2cccc2)cc1 [Example 133, trans-N-(4-{2-[4-(2,3-Dihydro-furo[3,2-c]pyridin-4-yl)-piperazin-1-yl]-ethyl}-cyclohexyl)-4-pyrrol-1-yl-benzamide] | 24.2 nM | 163 nM | 24.4 nM | 234 °C | – |
| O=C(CC1(O)CCC1)N[C@H]1CC[C@H](CCN2CCN(c3nccc4c3CCO4)CC2)CC1 [Example 141, trans-N-(4-{2-[4-(2,3-Dihydro-furo[3,2-c]pyridin-4-yl)-piperazin-1-yl]-ethyl}-cyclohexyl)-2-(1-hydroxy-cyclobutyl)-acetamide] | – | 409 nM | 25.8 nM | 155 °C | 22.5 nM |
| COCCC(=O)N[C@H]1CC[C@H](CCN2CCN(c3ncc(C)c4occc34)CC2)CC1 [Example 107, trans-3-Methoxy-N-(4-{2-[4-(7-methyl-furo[3,2-c]pyridin-4-yl)-piperazin-1-yl]-ethyl}-cyclohexyl)-propionamide] | 12 nM | 2470 nM | 30 nM | 177 °C | – |
| CC(C)(O)CC(=O)N[C@H]1CC[C@H](CCN2CCN(c3nccc4c3CCO4)CC2)CC1 [Example 87, trans-N-(4-{2-[4-(2,3-Dihydro-furo[3,2-c]pyridin-4-yl)-piperazin-1-yl]-ethyl}-cyclohexyl)-3-hydroxy-3-methyl-butyramide] | 25 nM | 1000 nM | 21.6 nM | 208 °C | – |
| O=C(N[C@H]1CC[C@H](CCN2CCN(c3nccc4c3CCO4)CC2)CC1)c1ccc(F)cc1 [Example 45, trans-N-(4-{2-[4-(2,3-Dihydro-furo[3,2-c]pyridin-4-yl)-piperazin-1-yl]-ethyl}-cyclohexyl)-4-fluoro-benzamide] | – | 342 nM | 10.7 nM | 209.5 °C | 11.1 nM |
| CN(C)S(=O)(=O)N[C@H]1CC[C@H](CCN2CCN(c3nccc4c3CCO4)CC2)CC1 [Example 66, N′-trans-(4-{2-[4-(2,3-dihydro-furo[3,2-c]pyridin-4-yl)-piperazin-1-yl]-ethyl}-cyclohexyl)-N,N-dimethyl-sulfamide] | 11.5 nM | 782 nM | 24.9 nM | 139.5 °C | – |
| Cc1nc(-c2cccc(C(=O)N[C@H]3CC[C@H](CCN4CCN(c5nccc6c5CCO6)CC4)CC3)c2)no1 [Example 127, trans-N-(4-{2-[4-(2,3-Dihydro-furo[3,2-c]pyridin-4-yl)-piperazin-1-yl]-ethyl}-cyclohexyl)-3-(5-methyl-[1,2,4]oxadiazol-3-yl)-benzamide] | 48.9 nM | 2150 nM | 19.5 nM | 218 °C | – |
| COC(CCC(=O)N[C@H]1CC[C@H](CCN2CCN(c3nccc4c3CCO4)CC2)CC1)OC [Example 114, trans-N-(4-{2-[4-(2,3-Dihydro-furo[3,2-c]pyridin-4-yl)-piperazin-1-yl]-ethyl}-cyclohexyl)-4,4-dimethoxy-butyramide] | 18.1 nM | 2370 nM | 68 nM | 205.5 °C | – |
| CC(=O)N[C@H]1CC[C@H](CCN2CCN(c3ncc(C)c4c3CCO4)CC2)CC1 [Example 108, trans-N-(4-{2-[4-(7-Methyl-2,3-dihydro-furo[3,2-c]pyridin-4-yl)-piperazin-1-yl]-ethyl}-cyclohexyl)-acetamide] | 67.5 nM | 2310 nM | 48.2 nM | 196.5 °C | – |
| CCC(=O)N[C@H]1CC[C@H](CCN2CCN(c3nccc4c3CCO4)CC2)CC1 [Example 36, trans-N-(4-{2-[4-(2,3-Dihydrofuro[3,2-c]pyridin-4-yl)-piperazin-1-yl]-ethyl}-cyclohexyl)-propionamide] | 13.3 nM | 813 nM | 9.7 nM | 192.5 °C | – |
| CC#CC(=O)N[C@H]1CC[C@H](CCN2CCN(c3nccc4c3CCO4)CC2)CC1 [Example 82, But-2-ynoic acid trans-(4-{2-[4-(2,3-dihydro-furo[3,2-c]pyridin-4-yl)-piperazin-1-yl]-ethyl}-cyclohexyl)-amide] | 12.2 nM | 426 nM | 17.2 nM | 193 °C | – |
| O=C(N[C@H]1CC[C@H](CCN2CCN(c3nccc4c3CCO4)CC2)CC1)c1cnc(N2CCOCC2)cn1 [Example 130, 5-Morpholin-4-yl-pyrazine-2-carboxylic acid trans-(4-{2-[4-(2,3-dihydro-furo[3,2-c]pyridin-4-yl)-piperazin-1-yl]-ethyl}-cyclohexyl)-amide] | 18.4 nM | 506 nM | 119 nM | 192.5 °C | – |
| CO[C@@H](C)C(=O)N[C@H]1CC[C@H](CCN2CCN(c3nccc4c3CCO4)CC2)CC1 [Example 137, trans-(S)—N-(4-{2-[4-(2,3-Dihydro-furo[3,2-c]pyridin-4-yl)-piperazin-1-yl]-ethyl}-cyclohexyl)-2-methoxy-propionamide] | 20.1 nM | 788 nM | 252 nM | 158.5 °C | – |
| O=C(N[C@H]1CC[C@H](CCN2CCN(c3nccc4c3CCO4)CC2)CC1)c1ccccc1 [Example 44, trans-N-(4-{2-[4-(2,3-Dihydro-furo[3,2-c]pyridin-4-yl)-piperazin-1-yl]-ethyl}-cyclohexyl)-benzamide] | 7.63 nM | 481 nM | 7.66 nM | 207.5 °C | – |
| COC(C)CC(=O)N[C@H]1CC[C@H](CCN2CCN(c3nccc4c3CCO4)CC2)CC1 (stereo partly drawn) [Example 139, trans-N-(4-{2-[4-(2,3-Dihydro-furo[3,2-c]pyridin-4-yl)-piperazin-1-yl]-ethyl}-cyclohexyl)-3-methoxy-butyramide] | – | 801 nM | 40.6 nM | 167 °C | 30.4 nM |
| CN(C)C(=O)N[C@H]1CC[C@H](CCN2CCN(c3nccc4c3CCO4)CC2)CC1 [Example 78, trans-3-(4-{2-[4-(2,3-Dihydro-furo[3,2-c]pyridin-4-yl)-piperazin-1-yl]-ethyl}-cyclohexyl)-1,1-dimethyl-urea] | – | 322 nM | 92.8 nM | 260 °C | 28.7 nM |
| COC(CC(=O)N[C@H]1CC[C@H](CCN2CCN(c3nccc4c3CCO4)CC2)CC1)OC [Example 113, trans-N-(4-{2-[4-(2,3-Dihydro-furo[3,2-c]pyridin-4-yl)-piperazin-1-yl]-ethyl}-cyclohexyl)-3,3-dimethoxy-propionamide] | 15.7 nM | 1380 nM | 19.3 nM | 220 °C | – |
| O=C(N[C@H]1CC[C@H](CCN2CCN(c3nccc4c3CCO4)CC2)CC1)C1CCOC1 (mixture of isomers) [Example 42, trans-N-(4-{2-[4-(2,3-Dihydrofuro[3,2-c]pyridin-4-yl)-piperazin-1-yl]-ethyl}-cyclohexyl)-rac-tetrahydrofuran-3-carboxamide] | 9.9 nM | 609 nM | 18.2 nM | 208.5 °C | – |
| O=C(C[C@@H](O)C(F)(F)F)N[C@H]1CC[C@H](CCN2CCN(c3nccc4c3CCO4)CC2)CC1 [Example 88, trans-(R)—N-(4-{2-[4-(2,3-Dihydro-furo[3,2-c]pyridin-4-yl)-piperazin-1-yl]-ethyl}-cyclohexyl)-4,4,4-trifluoro-3-hydroxy-butyramide] | – | 732 nM | 19.7 nM | 207 °C | 33.1 nM |
| COCC(=O)N[C@H]1CC[C@H](CCN2CCN(c3nccc4c3CCO4)CC2)CC1 [Example 38, trans-N-(4-{2-[4-(2,3-Dihydrofuro[3,2-c]pyridin-4-yl)-piperazin-1-yl]-ethyl}-cyclohexyl)-2-methoxyacetamide] | – | 1550 nM | 45.4 nM | 169.5 °C | 11 nM |
| O=C(N[C@H]1CC[C@H](CCN2CCN(c3nccc4c3CCO4)CC2)CC1)C1CCOCC1 [Example 33, trans-N-(4-{2-[4-(2,3-Dihydrofuro[3,2-c]pyridin-4-yl)-piperazin-1-yl]-ethyl}-cyclohexyl)-tetrahydro-2H-pyran-4-carboxamide] | 5.9 nM | 504 nM | 38.2 nM | 263 °C | – |
| CC[C@H](O)CC(=O)N[C@H]1CC[C@H](CCN2CCN(c3nccc4c3CCO4)CC2)CC1 [Example 89, (S)-3-Hydroxy-pentanoic acid trans-(4-{2-[4-(2,3-dihydro-furo[3,2-c]pyridin-4-yl)-piperazin-1-yl]-ethyl}-cyclohexyl)-amide] | – | 887 nM | 20 nM | 158 °C | 30 nM |
| O=C(CO)N[C@H]1CC[C@H](CCN2CCN(c3nccc4c3CCO4)CC2)CC1 [Example 40, trans-N-(4-{2-[4-(2,3-Dihydrofuro[3,2-c]pyridin-4-yl)-piperazin-1-yl]-ethyl}-cyclohexyl)-hydroxyacetamide] | 12.2 nM | 1570 nM | 15.9 nM | 237 °C | – |
| O=S(=O)(N[C@H]1CC[C@H](CCN2CCN(c3nccc4c3CCO4)CC2)CC1)c1ccc(F)cc1 [Example 50, trans-N-(4-{2-[4-(2,3-Dihydro-furo[3,2-c]pyridin-4-yl)-piperazin-1-yl]-ethyl}-cyclohexyl)-4-fluoro-benzenesulfonamide] | 39.4 nM | 240 nM | 6.72 nM | 221 °C | – |
